# Values of other authors, collected in patent publication US20080045604A1, “COMPOSITION AND METHOD FOR FACILITATING THE HEALING OF NON-HEALING AND SLOW-HEALING WOUNDS AND ULCERATIONS” (priority 2004, published 2008).
# What was measured:
# [1] = test system: Lemma minor; settings: Fitoterapia 2005
# [2] = test system: Neisseria gonorrhoeae; settings: Biological Chemistry 2005
# [3] = test system: pathogenic molds and dermatophytes; settings: reported medicinal properties
smiles,measurement,setting,value
"COc1cc(/C=C/C(=O)CC(=O)/C=C/c2ccc(O)c(OC)c2)ccc1O [Curcumin, (1E,6E)-1,7-bis(4-hydroxy-3-methoxyphenyl)-1,6-heptadiene-3,5-dione]",phytotoxic against Lemma minor,[1],100%
same,adherence of bacteria to cells in infection,[2],abolished the adherence of bacteria to cells
same,antifungal activity / inhibition of pathogenic molds and dermatophytes,[3],no antifungal activity
